# From PubChem BioAssay AID2202554 (NIEHS Division of Translational Toxicology (DTT))
# Results filed as inconclusive are left out. Calls of active or inactive are those of the source. No rule for the calls is given here.
# Tested on: S. typhimurium/E. coli reverse mutation, colony counts
# Test: Bacterial reverse mutation test (aka Ames test) summary data
# Summary of the method: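 Revertant colony counts on plates, compared with untreated controls, after about two days of growth. Exposure with or without liver S9 (rat/hamster/mouse), dose range per strain, 20-min 37° C preincubation or direct plate incorporation. Strains: his⁻ Salmonella, trp⁻ E. coli WP2 uvrA pKM101.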
row,Compound,outcome
1,C=CC(=O)OCC(CC)(COC(=O)C=C)COC(=O)C=C,inactive; negative
2,O=C1N(CO)C(O)C(O)N1CO (centres undefined),active; positive
3,CCCCOC(=O)COc1cc(Cl)c(Cl)cc1Cl,inactive; negative
4,CCCCC(CC)COC(=O)c1ccccc1C(=O)O (centres undefined),inactive; negative
5,C=CC(=O)OCCOCCOCCOCCOC(=O)C=C,inactive; negative
6,CC(C)(OOC(C)(C)c1ccccc1)c1ccccc1,inactive; negative
7,C=CCOC(C)=O,active; positive
8,Nc1ncc([N+](=O)[O-])s1,active; positive
9,CCOC(=O)c1ccccc1C(=O)OCC,inactive; negative
10,NC=O,inactive; negative
11,COc1ccc(Cc2nccc3cc(OC)c(OC)cc23)cc1OC,inactive; negative
12,CCC(CO)[N+](=O)[O-] (centres undefined),inactive; negative
13,CCN(Cc1ccccc1)c1ccccc1,inactive; negative
14,CCN(CC)c1ccc2c(C)cc(=O)oc2c1,inactive; negative
15,CCCCOCCOP(=O)(OCCOCCCC)OCCOCCCC,inactive; negative
16,O=c1[nH]c(=O)[nH]c(=O)[nH]1,inactive; negative
17,COc1cc(-c2ccc(N=Nc3ccc4c(S(=O)(=O)O)cc(S(=O)(=O)O)c(N)c4c3O)c(OC)c2)ccc1N=Nc1ccc2c(S(=O)(=O)O)cc(S(=O)(=O)O)c(N)c2c1O,active; positive
18,COc1cc(N)ccc1C,active; positive
19,O=P(O)(O)Oc1c[nH]c2ccccc12,active; positive
20,COc1cc(-c2ccc(N=Nc3cc(S(=O)(=O)O)c4ccccc4c3O)c(OC)c2)ccc1N=Nc1cc(S(=O)(=O)O)c2ccccc2c1O,inactive; negative
21,CCc1nc(N)nc(N)c1-c1ccc(Cl)cc1,inactive; negative
22,Nc1cc(Cl)c(N)c(Cl)c1,active; positive
23,[O]=[Mo](=[O])=[O],inactive; negative
24,Nc1ccccc1O,active; positive
25,CN=C=O,inactive; negative

row,Compound,outcome
1,CC(=O)Nc1ccccc1N,active; positive
2,O=C(O)CSCC(=O)O,inactive; negative
3,Cc1ccccc1C(N)=O,inactive; negative
4,C(=C\c1ccccc1)/c1ccccc1,inactive; negative
5,COc1c(Cl)c(Cl)c(Cl)c(Cl)c1Cl,active; positive
6,CC(C)=CCl,active; positive
7,O=C1c2c(O)ccc([N+](=O)[O-])c2C(=O)c2c([N+](=O)[O-])ccc(O)c21,active; positive
8,C1CNCCN1,inactive; negative
9,O=C(O)CO,inactive; negative
10,Nc1ccc(N=Nc2ccccc2)c(N)n1,active; positive
11,COc1cc2c(c(OC)c1OC)-c1ccc(OC)c(=O)cc1[C@@H](NC(C)=O)CC2,inactive; negative
12,Cc1cc(C)nc(NS(=O)(=O)c2ccc(N)cc2)n1,inactive; negative
13,O=C1CCCCC1,inactive; negative
14,c1ccc(NNc2ccccc2)cc1,active; positive
15,c1ccc(Nc2ccc3ccccc3c2)cc1,inactive; negative
16,Nc1ccc(Cl)cc1[N+](=O)[O-],active; positive
17,COc1ccc(C(=O)c2ccccc2)c(O)c1,active; weakly positive
18,CCC(C)=NO,active; positive
19,O=C1CCC(=O)O1,inactive; negative
20,C=C1C/C(=C/C)C(=O)O[C@@H]2CCN3CC=C(COC(=O)[C@@]1(O)CO)[C@H]23,active; positive
21,COc1ccc(CCC(=O)c2c(O)cc(O[C@@H]3O[C@H](CO)[C@@H](O)[C@H](O)[C@H]3O[C@@H]3O[C@@H](C)[C@H](O)[C@@H](O)[C@H]3O)cc2O)cc1O,inactive; negative
22,Cc1ccc2oc(=O)ccc2c1,inactive; negative
23,CCOC(N)=O,active; positive
24,CS(C)=O,inactive; negative
